Laboratory results reported in patent US11013780B2, “Methods of treating female infertility” (Myovant Sciences GmbH, priority 2016, dated 2021).
Where no end group is shown, it is not given here.

Legend:
[1] = in vivo; cited from earlier work
[2] = tested on: serum LH, FSH, E2; experiment: Physiological effects in healthy women, follicular phase (Example 11, Part 1); type: in vivo, human; conditions: 9.6 nmol/kg SC
Text: The study population included healthy women, aged 18-35 years, with BMI 18-30 kg/m^2, no medical problems and not taking any medications or hormonal contraception. Three healthy, female subjects were selected and randomized and received a single dose of each of the three study regimens noted below (one regimen per study period). All women were scheduled for three Study D1 Visits (each during the follicular phase of the menstrual cycle). […] The order in which a subject receives one of the three study regimens was determined by a randomization matrix.
The study included a screening visit to collect participants' full medical history and to conduct a general medical examination and blood testing. The three study periods each consisted of three planned study visits per study period (excluding screening and follow-up). Study Day 1 (SD1) Visit of each study period occurred during the follicular phase of the menstrual cycle (days 1-4), and the SD2 and SD3 Visits occurred at 24- and 48-hrs post-dose, respectively (FIG. 14). A follow-up phone call happened 7-10 days post-dose in each study period.
Immediately following dosing, serum LH, FSH, E2 (oestradiol), P (progesterone) and SHBG levels were assessed at 30 minute intervals for up to 14 hours (FIGS. 15A-15C, 16A-16C, 17, 18, 19, 20A, and 20B). These PD variables were also assessed at 24 (Study Day 2) and 48 hours (Study Day 3) post-dose. SHBG changes less rapidly and was measured every 3 hours to reduce blood volume.
Up to 3 mL of blood volume were required for measurement of serum reproductive hormone levels (LH, FSH, E2 and P). Blood samples for serum analysis were collected in plain Vacutainer tubes (Beckton Dickson, Franklin Lakes, N.J., USA), and spun after clotting (˜1 hour at room temperature) for 10 minutes at 3000 rpm. Serum was then stored in a locked freezer at −20° C. until assay of serum reproductive hormone levels.

[3] = tested on: LH surge; conditions: trigger in ART protocol with GnRH antagonist and FSH; cited from earlier work

## kisspeptin-54: previously shown to be clinically effective as a trigger for oocyte maturation in IVF studies (GTSLSPPPESSGSPQQPGLSAPHSRQIPAPQGAVLVQREKDLPNYNWNSFGLRF; ends and bridges not checked; UniProt Q15726 68-121, looked up)
[1]
  half-life: 32 min
[2]
  Time of LH peak after administration: 4 to 6 h
[3]
  Time by which the LH surge resolved: ≤ 36 h
